Results as given in the supplement of paper PMC10307832.

Tests used:
Experiment in all cases: relative viability (nuclei count vs DMSO), 5 days (fraction); higher = more cells survive
TGX 221 + Lapatinib = compound: CC1=CN2C(=O)C=C(N=C2C(=C1)C(C)NC3=CC=CC=C3)N4CCOCC4 [TGX 221] + CS(=O)(=O)CCNCc1ccc(-c2ccc3ncnc(Nc4ccc(OCc5cccc(F)c5)c(Cl)c4)c3c2)o1 [Lapatinib] (partner 2 µM)
Procedure, shortened: (§1)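 Lung cancer cell lines were pin-tool dosed in 1536-well plates on the day after seeding, with either a lone drug or a fixed anchor-drug dose plus five library-drug doses (not always all listed) in √10 steps. Nuclei were counted on 4× images after 5 days. Relative viability is the ratio of treated-well to vehicle-well nuclei counts, with each value a median of duplicate plates.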

TGX 221 + Foretinib = compound: CC1=CN2C(=O)C=C(N=C2C(=C1)C(C)NC3=CC=CC=C3)N4CCOCC4 [TGX 221] + COc1cc2c(Oc3ccc(NC(=O)C4(C(=O)Nc5ccc(F)cc5)CC4)cc3F)ccnc2cc1OCCCN1CCOCC1 [Foretinib] (partner 0.25 µM)
Procedure, shortened: as §1

[1] = compound: C1=CC=C(C(=C1)C2=CC=C(C=C2)C3=CSC4=C3C(=C(C(=O)N4)C#N)O)O + CC(=O)c1c(C)c2cnc(Nc3ccc(N4CCNCC4)cn3)nc2n(C2CCCC2)c1=O [Palbociclib] (partner 0.5 µM)
Procedure, shortened: as §1

TGX 221 + Bortezomib = compound: CC1=CN2C(=O)C=C(N=C2C(=C1)C(C)NC3=CC=CC=C3)N4CCOCC4 [TGX 221] + CC(C)C[C@H](NC(=O)[C@H](Cc1ccccc1)NC(=O)c1cnccn1)B(O)O [Bortezomib] (partner 0.002 µM)
Procedure, shortened: as §1

| Cell Line | relative viability (TGX 221 + Lapatinib; first compound 0.08 µM) | relative viability (TGX 221 + Lapatinib; first compound 0.8 µM) | relative viability (TGX 221 + Lapatinib; first compound 2.53 µM) | relative viability (TGX 221 + Lapatinib; first compound 8 µM) | relative viability (TGX 221 + Foretinib; first compound 0.08 µM) | relative viability (TGX 221 + Foretinib; first compound 0.253 µM) | relative viability (TGX 221 + Foretinib; first compound 0.8 µM) | relative viability (TGX 221 + Foretinib; first compound 2.53 µM) | relative viability (TGX 221 + Foretinib; first compound 8 µM) | relative viability ([1]; first compound 0.08 µM) | relative viability ([1]; first compound 0.253 µM) | relative viability ([1]; first compound 0.8 µM) | relative viability ([1]; first compound 2.53 µM) | relative viability ([1]; first compound 8 µM) | relative viability (TGX 221 + Bortezomib; first compound 0.08 µM) | relative viability (TGX 221 + Bortezomib; first compound 0.8 µM) | relative viability (TGX 221 + Bortezomib; first compound 2.53 µM) | relative viability (TGX 221 + Bortezomib; first compound 8 µM) | relative viability (TGX 221 + Lapatinib; first compound 0.253 µM) | relative viability (TGX 221 + Bortezomib; first compound 0.253 µM) |
| --- | --- | --- | --- | --- | --- | --- | --- | --- | --- | --- | --- | --- | --- | --- | --- | --- | --- | --- | --- | --- |
| LC-2-ad | 0.943 | 0.972 | 1.01 | 0.978 | 0.865 | 0.85 | 0.95 | 0.825 | 0.751 | 0.416 | 0.406 | 0.461 | 0.499 | 0.441 | 0.978 | 1.07 | 1.05 | 0.928 |  |  |
| LCLC-97TM1 | 1.12 | 1.12 | 1.05 | 1.02 | 0.949 | 1.01 | 0.904 | 0.959 | 0.802 | 0.24 | 0.233 | 0.268 | 0.26 | 0.204 | 0.586 | 0.504 | 0.736 | 0.405 | 0.726 | 0.421 |
| LOU-NH91 | 0.71 | 0.751 | 0.728 | 0.739 | 0.766 | 0.922 | 0.945 | 0.907 | 0.781 | 0.501 | 0.542 | 0.535 | 0.544 | 0.534 | 0.492 | 0.514 | 0.381 | 0.51 | 0.814 | 0.52 |
| LU99A | 0.957 | 0.939 | 1.01 | 0.913 | 0.68 | 0.902 | 0.755 | 0.917 | 0.953 | 0.389 | 0.371 | 0.44 | 0.469 | 0.392 | 1.06 | 1.04 | 1.04 | 1.09 | 0.865 | 0.887 |
| LXF-289 | 0.933 | 0.955 | 0.904 | 0.885 | 0.974 | 0.986 | 1 | 0.97 | 0.995 | 0.612 | 0.595 | 0.681 | 0.629 | 0.675 | 1.02 | 0.915 | 0.974 | 1.06 | 0.889 | 0.979 |
| NCI-H23 | 1.13 | 1.1 | 1.12 | 0.975 | 0.84 | 0.861 | 1.03 | 0.87 | 0.65 | 0.445 | 0.512 | 0.593 | 0.51 | 0.467 | 0.861 | 1.11 | 1.03 | 0.963 | 0.95 | 1.21 |
| NCI-H322M | 0.567 | 0.547 | 0.562 | 0.67 | 0.924 | 0.869 | 1 | 0.763 | 0.765 | 0.461 | 0.468 | 0.467 | 0.483 | 0.49 | 1.15 | 1.15 | 1.18 | 1.11 | 0.6 | 1.09 |
| NCI-H460 | 0.709 | 0.983 | 0.969 | 0.966 | 1.02 | 0.968 | 1.14 | 0.957 | 0.83 | 0.15 | 0.149 | 0.15 | 0.101 | 0.158 | 0.724 | 1.02 | 1.11 | 1 | 0.795 | 0.922 |
| NCI-H520 | 0.724 | 0.824 | 0.671 | 0.516 | 0.582 | 0.544 | 0.509 | 0.372 | 0.427 | 0.235 | 0.212 | 0.223 | 0.226 | 0.206 | 0.345 | 0.56 | 0.263 | 0.309 | 0.562 | 0.457 |
| NCI-H647 | 0.95 | 0.955 | 0.746 | 0.61 | 1.05 | 1.04 | 1.21 | 0.762 | 0.931 |  | 0.387 | 0.392 | 0.346 | 0.22 | 0.929 | 0.926 | 0.676 | 0.616 | 0.869 | 0.66 |
| NCI-H650 | 1 | 0.706 | 0.908 | 0.76 | 0.941 | 0.944 | 0.904 | 0.964 | 0.976 | 0.305 | 0.357 | 0.329 | 0.273 | 0.344 | 0.697 | 0.721 | 0.639 | 0.791 | 0.98 | 0.748 |
| NCI-H661 | 0.486 | 0.439 | 0.382 | 0.394 | 1.03 | 0.987 | 1.02 | 1.09 | 0.82 | 0.426 | 0.419 | 0.392 | 0.394 | 0.391 | 0.689 | 0.75 | 0.677 | 0.668 | 0.376 | 0.59 |
| NCI-H727 | 0.751 | 0.794 | 0.832 | 0.919 | 0.876 | 1.05 | 1.16 | 1.12 | 1.05 | 0.711 | 0.703 | 0.571 | 0.666 | 0.591 | 0.827 | 1.03 | 0.737 | 0.893 | 0.731 | 0.829 |
| NCI-H838 | 1.06 | 0.886 | 0.822 | 0.718 | 1.04 | 0.952 | 0.945 | 0.799 | 0.7 | 0.22 | 0.231 | 0.193 | 0.201 | 0.186 | 0.751 | 0.713 | 0.712 | 0.544 | 0.876 | 0.853 |
| NCI-H1355 | 1.07 | 0.859 | 0.95 | 0.852 | 0.994 | 0.814 | 0.984 | 0.849 | 0.788 | 0.445 | 0.413 | 0.437 | 0.412 | 0.378 | 1.18 | 1.26 | 1.12 | 1.08 | 0.964 | 1.16 |
| NCI-H1437 | 0.904 | 0.773 | 0.72 | 0.711 | 1.26 | 1.21 | 1.25 | 1.19 | 1.06 | 0.277 | 0.361 | 0.324 | 0.326 | 0.27 | 0.535 | 0.522 | 0.414 | 0.486 | 0.722 | 0.53 |
